Experimental data from the NIST ThermoML archive (doi:10.1016/j.tca.2009.06.004).
± gives the expanded uncertainty stated by the source.

Assay: excess molar enthalpy (molar enthalpy of mixing); xn = mol fraction of the nth substance listed
Conditions: 298.15 K, 101 kPa, Liquid, Calvet calorimetry

Q: With `OCCOCCO` [diethylene glycol] + O as the molecule, how does the excess molar enthalpy (x2 = 0.1026) read?
A: -0.275 ± 0.004 kJ/mol

Q: And the excess molar enthalpy (x2 = 0.2012)?
A: -0.511 ± 0.006 kJ/mol

Q: And the excess molar enthalpy (x2 = 0.2094)?
A: -0.521 ± 0.006 kJ/mol

Q: What about the excess molar enthalpy (x2 = 0.3067) of the same molecule?
A: -0.741 ± 0.008 kJ/mol

Q: What about the excess molar enthalpy (x2 = 0.4068) of the same molecule?
A: -0.931 ± 0.01 kJ/mol

Q: And the excess molar enthalpy (x2 = 0.4937)?
A: -1.04 ± 0.011 kJ/mol

Q: What about the excess molar enthalpy (x2 = 0.5018) of the same molecule?
A: -1.07 ± 0.012 kJ/mol

Q: What about the excess molar enthalpy (x2 = 0.6003) of the same molecule?
A: -1.19 ± 0.013 kJ/mol

Q: What about the excess molar enthalpy (x2 = 0.6996) of the same molecule?
A: -1.25 ± 0.013 kJ/mol

Q: And the excess molar enthalpy (x2 = 0.7998)?
A: -1.17 ± 0.013 kJ/mol

Q: And the excess molar enthalpy (x2 = 0.8999)?
A: -0.857 ± 0.01 kJ/mol

Q: And the excess molar enthalpy (x2 = 0.9002)?
A: -0.867 ± 0.01 kJ/mol

Q: And the excess molar enthalpy (x2 = 0.9498)?
A: -0.538 ± 0.006 kJ/mol

Q: For `OCCOCCOCCO` [triethylene glycol] + CCO, which excess molar enthalpy (x2 = 0.104) is on record?
A: 0.117 ± 0.002 kJ/mol

Q: And the excess molar enthalpy (x2 = 0.2042)?
A: 0.245 ± 0.003 kJ/mol

Q: What about the excess molar enthalpy (x2 = 0.301) of the same molecule?
A: 0.35 ± 0.005 kJ/mol

Q: What about the excess molar enthalpy (x2 = 0.399) of the same molecule?
A: 0.435 ± 0.005 kJ/mol

Q: And the excess molar enthalpy (x2 = 0.5002)?
A: 0.494 ± 0.006 kJ/mol

Q: And the excess molar enthalpy (x2 = 0.599)?
A: 0.508 ± 0.006 kJ/mol

Q: And the excess molar enthalpy (x2 = 0.6993)?
A: 0.47 ± 0.006 kJ/mol

Q: And the excess molar enthalpy (x2 = 0.7995)?
A: 0.403 ± 0.005 kJ/mol

Q: And the excess molar enthalpy (x2 = 0.8992)?
A: 0.26 ± 0.004 kJ/mol

Q: With `OCCO` [1,2-ethanediol] + O as the molecule, how does the excess molar enthalpy (x2 = 0.1014) read?
A: -0.174 ± 0.003 kJ/mol

Q: What about the excess molar enthalpy (x2 = 0.1994) of the same molecule?
A: -0.337 ± 0.004 kJ/mol

Q: What about the excess molar enthalpy (x2 = 0.2091) of the same molecule?
A: -0.347 ± 0.005 kJ/mol

Q: What about the excess molar enthalpy (x2 = 0.3051) of the same molecule?
A: -0.48 ± 0.006 kJ/mol

Q: And the excess molar enthalpy (x2 = 0.3674)?
A: -0.559 ± 0.007 kJ/mol

Q: What about the excess molar enthalpy (x2 = 0.3995) of the same molecule?
A: -0.59 ± 0.007 kJ/mol

Q: What about the excess molar enthalpy (x2 = 0.4807) of the same molecule?
A: -0.64 ± 0.007 kJ/mol

Q: And the excess molar enthalpy (x2 = 0.5455)?
A: -0.666 ± 0.008 kJ/mol

Q: And the excess molar enthalpy (x2 = 0.6144)?
A: -0.698 ± 0.008 kJ/mol

Q: What about the excess molar enthalpy (x2 = 0.669) of the same molecule?
A: -0.715 ± 0.008 kJ/mol

Q: And the excess molar enthalpy (x2 = 0.7949)?
A: -0.681 ± 0.008 kJ/mol

Q: What about the excess molar enthalpy (x2 = 0.8656) of the same molecule?
A: -0.57 ± 0.007 kJ/mol

Q: What about the excess molar enthalpy (x2 = 0.915) of the same molecule?
A: -0.423 ± 0.005 kJ/mol

Q: Which excess molar enthalpy (x2 = 0.1028) does the source give for `OCC(O)CO` [glycerol] + O here?
A: -0.152 ± 0.003 kJ/mol

Q: What about the excess molar enthalpy (x2 = 0.2192) of the same molecule?
A: -0.292 ± 0.004 kJ/mol

Q: What about the excess molar enthalpy (x2 = 0.3038) of the same molecule?
A: -0.387 ± 0.005 kJ/mol

Q: And the excess molar enthalpy (x2 = 0.3964)?
A: -0.471 ± 0.006 kJ/mol

Q: What about the excess molar enthalpy (x2 = 0.5022) of the same molecule?
A: -0.547 ± 0.006 kJ/mol

Q: What about the excess molar enthalpy (x2 = 0.5956) of the same molecule?
A: -0.598 ± 0.007 kJ/mol

Q: What about the excess molar enthalpy (x2 = 0.6991) of the same molecule?
A: -0.611 ± 0.007 kJ/mol

Q: And the excess molar enthalpy (x2 = 0.8005)?
A: -0.56 ± 0.007 kJ/mol

Q: And the excess molar enthalpy (x2 = 0.8995)?
A: -0.364 ± 0.005 kJ/mol

Q: Which results are given for `OCCOCCO` [diethylene glycol] + CCO?
A: excess molar enthalpy (x2 = 0.1048): 0.076 ± 0.002 kJ/mol; excess molar enthalpy (x2 = 0.1991): 0.129 ± 0.002 kJ/mol; excess molar enthalpy (x2 = 0.2967): 0.193 ± 0.003 kJ/mol; excess molar enthalpy (x2 = 0.4009): 0.249 ± 0.004 kJ/mol; excess molar enthalpy (x2 = 0.4963): 0.262 ± 0.004 kJ/mol; excess molar enthalpy (x2 = 0.5879): 0.28 ± 0.004 kJ/mol; excess molar enthalpy (x2 = 0.7041): 0.252 ± 0.004 kJ/mol; excess molar enthalpy (x2 = 0.7958): 0.204 ± 0.003 kJ/mol; excess molar enthalpy (x2 = 0.9006): 0.121 ± 0.002 kJ/mol

Q: What does the source list for `OCCOCCOCCO` [triethylene glycol] + O?
A: excess molar enthalpy (x2 = 0.1291): -0.44 ± 0.005 kJ/mol; excess molar enthalpy (x2 = 0.2167): -0.787 ± 0.009 kJ/mol; excess molar enthalpy (x2 = 0.3145): -1.08 ± 0.012 kJ/mol; excess molar enthalpy (x2 = 0.4016): -1.34 ± 0.014 kJ/mol; excess molar enthalpy (x2 = 0.5006): -1.61 ± 0.017 kJ/mol; excess molar enthalpy (x2 = 0.6006): -1.8 ± 0.019 kJ/mol; excess molar enthalpy (x2 = 0.6999): -1.88 ± 0.02 kJ/mol; excess molar enthalpy (x2 = 0.7985): -1.77 ± 0.019 kJ/mol; excess molar enthalpy (x2 = 0.9013): -1.31 ± 0.014 kJ/mol
